# Experimental data taken from patent US20130259929A1, “USE OF A PHOSPHOPEPTIDE ABLE TO BLOCK HER3/P85 INTERACTION FOR THE TREATMENT OF HER2 HYPER-EXPRESSING TUMOURS” (priority 2010, published 2013).
# Non-standard residues stand in square brackets, D forms with d. No end group written: not given here. pY = N[C@@H](Cc1ccc(OP(=O)(O)O)cc1)C(=O)O
# How the values were obtained:
# [1] = system: MCF7/Luc cells; test: In vivo growth of peptide-transfected MCF7/Luc cells inoculated s.c.; set-up: species or system SCID mice
# Description: Xeno-grafts. In vivo tests have been carried out using 40 day old SCID female mice (Harlan Laboratories, Milan, IT). At day 0, animals have been totally anesthetized with intramuscular injection of 400 μg/animal (average weight 25 g) of Zoletil (Virbac) containing 0.12% Xylor (Xylazine), and transplanted subcutaneously (s.c.), in intrascapular mouse region with pellet of […] (1.7 mg/sustained release pellet over 60 days, Innovative Research of America, Sarasota, Fla.). On the next day, 5×10^6 proliferating and scr and 1257 peptide previously transfected, as above described, MCF7 or BT474 cells, have been re-suspended in 0.1 ml of Matrigel (BD Biosciences) and subcutaneously inoculated in each mouse. […] Tumour growth has been monitored two times weekly using calibration along two orthogonal axes: length (L) and […]. The tumour volume (V) has been calculated using the formula V=L*(W2)/2. All the procedures relating to animals and treatment thereof have been carried out according institutional guidelines.
# Generation of mammary tumour luminescent cells. Mammary tumour MCF7 cell lines stably transfected using pGL4.51 (luc2/CMV/Neo) expression vector, produced by Promega (Me, IT), have been transfected using scr or 1257 phosphopeptide ([…]×5×10^4 cells/mouse) and after 30 h subcutaneously inoculated in SCID mice (5×10^6 cells/mouse) in 200 μl (1:1 Matrigel: cell suspension in serum free medium). Mice have been in vivo imaged 20′ after inoculation and once weekly over 11 weeks. The animals have been anesthetized, as above reported, and subjected to intraperitoneal injection with 200 μl of luciferin (Caliper, Mi, IT); 10′ after incubation photon emission has been analyzed at 3′ minute exposure using Xenogen Ivis Lumina 2 machine. Growth of these cells has been monitored as reported in xenografts section.
# Then it has been verified whether 1257 phosphopeptide was effective also in vivo. To this purpose immunocompromised SCID mice have been used. In the presence of oestrogen tablets, 5×10^6 control cells transfected with scr peptide or transfected with 1257 peptide have been injected subcutaneously between mouse scapulae. In order to verify the viability of phosphopeptide transfected cells in animals we have generated a stable luciferase gene expressing MCF7 cell line (MCF7/Luc).
# [2] = system: MCF7 cells; test: Soft agar anchorage-independent growth; format: cell-based, human; details: compared to parental or scr peptide transfected cells
# Description: (§1) Soft agar. […] Briefly cells (1×10^4) have been re-suspended in 5 ml of 0.3% agar in RPMI or DMEM supplemented with 10% FCS, and quickly stained on a solid layer of 1.2% agar in DMEM/RPMI. Cultures have been carried out for 4 weeks. Then colonies have been stained with viable colony specific neutral red solution (Sigma, Milan, IT), and then counted. Photographies have been taken using Leica DM IRE2 microscope and Leica FW4000 software (Leica Microsystems, Milan, IT).
# (§2) Then it has been attempted to understand whether the peptide is suitable to reduce the cell ability to grow under anchorage-independence conditions.
# [3] = system: BT474 cells; test: Soft agar anchorage-independent growth; format: cell-based, human; details: compared to parental or scr peptide transfected cells
# Description: as §1, §2
# [4] = biological target: T1, HER3 binding to GST-N-SH2p85 fusion protein (Homo sapiens, UniProt P27986); test: GST pull-down; details: lysates of BT474, MCF7 and MDA-MB-453 cells, in vitro (FIG. 2A, FIG. 3)
# T1 construct: containing SH2 domains in N-terminal portion of p85 sub-unit
# T1 sequence (P27986 333-428 limits assumed): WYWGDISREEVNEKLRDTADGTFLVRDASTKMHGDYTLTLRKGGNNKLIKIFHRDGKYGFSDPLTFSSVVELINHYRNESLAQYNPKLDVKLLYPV
# Description: GST pull-down. MCF-7, BT474 and MDA-MB-453 cell lines have been washed 2 times with cold PBS and extracted with lysis buffer [(50 mM Tris HCl (pH 7.4), 250 mM NaCl, 0,1% Triton X-100, 5 mM EDTA, 50 mM NaF, 1 mM PMSF, 5 mM Na3VO4 and 50 mmol/L of protease inhibitors (Roche, Milano, IT)]. After 20 minute ice-cold incubation, the lysates have been clarified by centrifugation at 14000 rpm for 20 minutes. The cellular extracts (1 mg sample) have been incubated for 4 hours at 4° C. in the presence of GST bound gluthatione-agarose beads or GST-p85 fusion protein (kindly supplied by doctor S. Giordano), in the presence or absence of 1257 phosphopeptide or scr peptide used as control. Then the interaction complexes have been washed six times with lysis buffer and subsequently beads eluted using Laemli Buffer 2× [(140 mM SDS, 432 mM Glycerol, 1.6 mM Bromophenol blue, 120 mM Tris HCl (pH 6.8), 8% β-mercaptoethanol)]. The proteins have been separated using 8% SDS-PAGE and transferred on nitrocellulose filter. The filter has been then immunodecorated with anti ErbB3 antibody.
# As in FIG. 2A is apparent that 1257 phosphopeptide effectively in vitro binds p85 sub-unit thus inhibiting HER3 receptor binding.
# [5] = system: BT474 xenograft; test: Electroporation tumour therapy of BT474 xenografts; format: in vivo, SCID mice; details: Herceptin i.p. (FIG. 11A)
# Description: Xeno-grafts. In vivo tests have been carried out using 40 day old SCID female mice (Harlan Laboratories, Milan, IT). At day 0, animals have been totally anesthetized with intramuscular injection of 400 μg/animal (average weight 25 g) of Zoletil (Virbac) containing 0.12% Xylor (Xylazine), and transplanted subcutaneously (s.c.), in intrascapular mouse region with pellet of 17-h-extradiol (1.7 mg/sustained release pellet over 60 days, Innovative Research of America, Sarasota, Fla.). […] Tumour growth has been monitored two times weekly using calibration along two orthogonal axes: length (L) and depth (VV). The tumour volume (V) has been calculated using the formula V=L*(W2)/2.
# Electroporation tumour therapy. […] Therapy has been repeated once weekly, and tumour size monitored up to 70 days.
# [6] = system: MCF7 cells; test: Cell death and apoptosis (Trypan Blue exclusion); format: cell-based, human; details: MCF7 cells vs parental or scr transfected; Herceptin 1 μg/ml 40 hours where combined
# Text: (§3) Cell death and Apoptosis. MCF7, BT474 and MDA-MB-453 cell lines have been plated at 5×10^5 concentration in 60 mm plates. On subsequent day the cells have been transfected with ErbB3 specific interference oligonucleotides or peptides. […] The cells have been washed two times with cold PBS and then trypsin collected. The evaluation of cellular viability has been carried out by means of Trypan Blue exclusion. The use of anti-PARP antibody in Western Blotting analysis allowed apoptosis to be evaluated. Briefly the cells have been lysed in RIPA buffer [150 mM NaCl, 1% NP-40, 0,5% sodium deoxycholate (DOC), 0.1% SDS, 50 mM TrisHCl (pH 8), 1 mM PMSF, 1 mM EGTA, 50 mM NaF, 50 mM Na3VO4 and protease inhibitors (Roche, Milano, IT)]. The samples have been boiled for 5 minutes at 95° C., resolved using SDS-PAGE, transferred on nitrocellulose and blotted using anti-PARP antibody. The tumour cell death analyzed by immunohistochemistry have been obtained using TUNEL assay.
# [7] = system: BT474 cells; test: Cell death and apoptosis (Trypan Blue exclusion); format: cell-based, human; details: BT474 cells vs parental or scr transfected; Herceptin 1 μg/ml 40 hours where combined
# Text: as §3
# [8] = s.c. inoculation of transfected MCF7 cells, up to 16th week
substance,measurement,setting,value
RDGGGPGGDpYAAMGACPA (RDGGGPGGD[pY]AAMGACPA; listed as Homo sapiens) [1257 phosphopeptide],luminescence of transplanted cells over the time,[1]; bioluminescence imaging weekly (FIG. 7A),progressively decreases
same,time after inoculation at which tumours were calibratable,[1]; s.c. inoculation of transfected MCF7 cells,about 10 week
same,animals that displayed tumour,[1]; [8],One out of five
same,reduction of tumour take,[1]; [8],80%
same,reduction of colony number,[2],up to 80%
same,reduction of colony number,[3],up to 80%
same,inhibition of HER3 and p85 SH2 domain binding,[4],inhibits in specific way HER3 and p85 SH2 domain binding
same,tumour mass compared to not treated control,[5],strongly reduces the tumour mass
same,"cell death, times higher than controls",[6],3 times
same,"cell death, times higher than controls",[7],4 times
